The test system of data set [1] is flies of the species Musca domestica. Kind of data set: Percentage of flies lying on their backs after one hour, shaped pieces in a 40 m^3 room (Example 9). As to conditions: shaped piece of Example 5 (Thio-DDVP) or 5a (DDVP). The format is in vivo. Here is the method:
One shaped piece produced according to Example 5 and one shaped piece produced according to Example 5a were each pushed into a net-like quiver and suspended from the ceiling in the center of identical rooms of 40 m^3 cubic capacity. Immediately thereafter (0), and after 4, 8 and 12 weeks, 200 flies of the species Musca domestica were in each case exposed in the rooms. […] In each case, the percentage of animals which had fallen on their backs was determined 1 hour after exposing the flies.

Data set [2] can be described thus: Acute oral toxicity, male rats. The conditions noted are these: rat, in vivo.
The next data set has as its system male rats. Kind of data set: Acute inhalation toxicity, male rats (4 hours' exposure). The format is in vivo.
Another data set concerns warm-blooded animals. Kind of data set: Toxicity to warm-blooded animals compared to DDVP. The format is in vivo.
A further data set relates to Musca domestica. Kind of data set: Aerosol test (knock-down of 50% of the animals, LT50). The format is in vivo. As to conditions: comparison experiment, Example 1. How it is done: The following examples explain the invention in more detail, with "parts" denoting parts by weight.
Test animals: Musca domestica
To produce a suitable preparation of active compound, the active compound was mixed, at a range of concentrations, with the stated solvent.
A wire cage which contained about 25 test animals was suspended in the centre of a gas-tight glass chamber of size 1 m^3. After the chamber had been closed again, 2 ml of the preparation of active compound were atomised in the chamber. The condition of the test animals was constantly checked from outside, through the glass walls, and the time required for a knock-down effect on 50% of the animals was determined.
The active compounds, amounts used and time after which 50% of the animals were lying on their backs (LT50) can be seen from the table which follows: […]

Where [3] appears, read: age of the shaped pieces 0 weeks.
Where [4] appears, read: age of the shaped pieces 4 weeks.
The mark [5] stands for this setting: age of the shaped pieces 8 weeks.
The mark [6] stands for this setting: age of the shaped pieces 12 weeks.

As for `COP(=O)(OC)OC=C(Cl)Cl` [DDVP, dimethyl-2,2-dichlorovinyl phosphate, reference compound], the “percentage of animals lying on their backs after one hour” value in data set [1] (setting [3]) is reported as 80 percentage; in data set [1] (setting [4]), 70 percentage; in data set [1] (setting [5]) it was 60 percentage; in data set [1] (setting [6]), 20 percentage. Further, in data set [2], the LD50 was found to be 62 mg/kg. In the data set on male rats, the “LC50 male rats, acute inhalation toxicity” value came out at 340 mg/m^3.
Turning to `COP(=S)(OC)OC=C(Cl)Cl` [Thio-DDVP, dimethyl-2,2-dichlorovinyl thiophosphate], the “percentage of animals lying on their backs after one hour” value is listed as 100 percentage in data set [1] (setting [3]), 95 percentage in data set [1] (setting [4]), 90 percentage in data set [1] (setting [5]) and 50 percentage in data set [1] (setting [6]). Also, the “toxicity to warm-blooded animals compared to DDVP” value in the data set on warm-blooded animals is reported as “lower toxicity to warm-blooded animals”. Further, the LD50 in data set [2] is 773 mg/kg. In addition, the “tolerance of the maximum possible concentration, acute inhalation toxicity” value in the data set on male rats (477 mg/m^3, maximum possible in the experiment) is “tolerated without symptoms”. Moreover, the “LC50 male rats, acute inhalation toxicity” value in the data set with male rats is greater than 477 mg/m^3. For the same compound, the “insecticidal action compared to DDVP” value with Musca domestica is “poorer insecticidal action”.

A word on the LD50: it is the dose at which mortality reaches 50%. A low value points to greater toxicity.

These data come from patent US4123518A, “Insecticidal phosphate ester-based solid composition with depot gas action” (priority 1974, dated 1978).
